What was measured:
Test in all cases: KINOMEscan kinase binding assay (Eurofins/DiscoveRx), % Ctrl
kinases [1] = target: T1, kinases (Homo sapiens, UniProt P10721, L576P); conditions: 1 μM; KIT(L576P)
T1 construct: purchased Eurofins/DiscoveRx; host or cells: E. coli BL21-derived host (T7 phage display) for most kinases; HEK-293 for the rest
Outline: (§1)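 Competition binding: DNA- or phage-tagged kinases (T7 phage in E. coli BL21, or HEK-293-expressed) with immobilized biotinylated ligand beads and test compound, 1 h at room temperature. Bead-bound kinase eluted and quantified by qPCR; % Ctrl = (compound − positive control)/(negative control − positive control) ×100 at a single compound concentration.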

kinases [2] = target: T2, kinases (Homo sapiens, UniProt P42684); conditions: 1 μM; ABL2
T2 construct: purchased Eurofins/DiscoveRx; host or cells: E. coli BL21-derived host (T7 phage display) for most kinases; HEK-293 for the rest
T2 sequence (P42684 whole entry): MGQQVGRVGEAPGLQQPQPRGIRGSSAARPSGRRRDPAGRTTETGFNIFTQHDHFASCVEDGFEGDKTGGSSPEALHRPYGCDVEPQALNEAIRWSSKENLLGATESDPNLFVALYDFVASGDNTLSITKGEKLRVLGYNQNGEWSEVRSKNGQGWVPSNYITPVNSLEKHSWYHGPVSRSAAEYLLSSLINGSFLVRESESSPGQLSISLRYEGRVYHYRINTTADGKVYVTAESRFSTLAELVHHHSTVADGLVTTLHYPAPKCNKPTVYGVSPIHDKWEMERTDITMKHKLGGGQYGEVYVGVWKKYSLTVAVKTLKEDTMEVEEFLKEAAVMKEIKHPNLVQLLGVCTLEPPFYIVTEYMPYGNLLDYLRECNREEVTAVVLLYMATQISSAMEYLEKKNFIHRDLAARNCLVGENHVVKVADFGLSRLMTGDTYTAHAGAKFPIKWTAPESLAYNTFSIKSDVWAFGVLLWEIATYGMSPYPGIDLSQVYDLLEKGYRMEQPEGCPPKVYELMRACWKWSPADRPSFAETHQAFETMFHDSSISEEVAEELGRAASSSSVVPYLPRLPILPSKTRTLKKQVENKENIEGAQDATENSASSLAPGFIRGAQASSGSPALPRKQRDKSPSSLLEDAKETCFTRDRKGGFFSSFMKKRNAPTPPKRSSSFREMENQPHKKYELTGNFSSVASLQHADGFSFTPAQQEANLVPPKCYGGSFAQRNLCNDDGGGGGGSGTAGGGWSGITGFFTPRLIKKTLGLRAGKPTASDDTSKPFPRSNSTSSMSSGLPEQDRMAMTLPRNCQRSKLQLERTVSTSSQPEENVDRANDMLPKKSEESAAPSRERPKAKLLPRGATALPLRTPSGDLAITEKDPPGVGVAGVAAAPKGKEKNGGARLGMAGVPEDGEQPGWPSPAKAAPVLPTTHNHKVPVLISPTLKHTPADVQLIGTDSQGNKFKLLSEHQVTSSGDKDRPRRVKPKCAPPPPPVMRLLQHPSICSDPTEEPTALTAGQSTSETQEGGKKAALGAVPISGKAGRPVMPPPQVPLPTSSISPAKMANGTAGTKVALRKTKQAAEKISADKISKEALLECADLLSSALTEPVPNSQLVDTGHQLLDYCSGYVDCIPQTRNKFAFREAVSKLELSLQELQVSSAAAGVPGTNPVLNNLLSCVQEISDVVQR
Outline: as §1

kinases [3] = target: T3, kinases (Homo sapiens, UniProt P10721, V559D); conditions: 1 μM; KIT(V559D)
T3 construct: purchased Eurofins/DiscoveRx; host or cells: E. coli BL21-derived host (T7 phage display) for most kinases; HEK-293 for the rest
T3 sequence (P10721 26-976 V559D): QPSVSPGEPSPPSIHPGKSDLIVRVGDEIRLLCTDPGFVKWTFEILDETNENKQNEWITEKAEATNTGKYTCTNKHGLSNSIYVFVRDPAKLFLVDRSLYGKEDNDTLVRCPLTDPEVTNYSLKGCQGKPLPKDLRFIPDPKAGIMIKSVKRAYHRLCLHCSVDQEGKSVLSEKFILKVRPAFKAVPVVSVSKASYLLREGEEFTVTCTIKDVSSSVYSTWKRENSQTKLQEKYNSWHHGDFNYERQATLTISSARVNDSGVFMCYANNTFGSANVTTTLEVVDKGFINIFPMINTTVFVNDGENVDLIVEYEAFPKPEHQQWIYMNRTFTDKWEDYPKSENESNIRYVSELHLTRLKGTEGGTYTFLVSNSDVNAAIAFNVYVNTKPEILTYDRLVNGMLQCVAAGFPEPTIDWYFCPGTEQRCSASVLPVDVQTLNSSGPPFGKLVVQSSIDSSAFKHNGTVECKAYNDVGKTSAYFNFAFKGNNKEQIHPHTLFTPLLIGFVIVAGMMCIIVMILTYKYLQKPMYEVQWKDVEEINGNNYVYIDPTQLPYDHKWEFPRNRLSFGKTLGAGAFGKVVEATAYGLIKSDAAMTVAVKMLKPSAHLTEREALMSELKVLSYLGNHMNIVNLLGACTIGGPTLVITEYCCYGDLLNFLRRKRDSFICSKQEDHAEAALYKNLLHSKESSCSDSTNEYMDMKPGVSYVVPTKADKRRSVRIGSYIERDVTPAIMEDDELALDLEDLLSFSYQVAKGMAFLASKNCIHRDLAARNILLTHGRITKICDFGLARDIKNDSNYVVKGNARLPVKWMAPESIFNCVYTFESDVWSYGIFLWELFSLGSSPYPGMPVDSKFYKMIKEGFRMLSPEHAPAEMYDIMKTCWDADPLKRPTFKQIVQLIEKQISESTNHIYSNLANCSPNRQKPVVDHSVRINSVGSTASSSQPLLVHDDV
Outline: as §1

kinases [4] = target: T4, kinases (Homo sapiens, UniProt P00533); conditions: 1 μM; EGFR
T4 construct: purchased Eurofins/DiscoveRx; host or cells: E. coli BL21-derived host (T7 phage display) for most kinases; HEK-293 for the rest
T4 sequence (P00533 25-1210): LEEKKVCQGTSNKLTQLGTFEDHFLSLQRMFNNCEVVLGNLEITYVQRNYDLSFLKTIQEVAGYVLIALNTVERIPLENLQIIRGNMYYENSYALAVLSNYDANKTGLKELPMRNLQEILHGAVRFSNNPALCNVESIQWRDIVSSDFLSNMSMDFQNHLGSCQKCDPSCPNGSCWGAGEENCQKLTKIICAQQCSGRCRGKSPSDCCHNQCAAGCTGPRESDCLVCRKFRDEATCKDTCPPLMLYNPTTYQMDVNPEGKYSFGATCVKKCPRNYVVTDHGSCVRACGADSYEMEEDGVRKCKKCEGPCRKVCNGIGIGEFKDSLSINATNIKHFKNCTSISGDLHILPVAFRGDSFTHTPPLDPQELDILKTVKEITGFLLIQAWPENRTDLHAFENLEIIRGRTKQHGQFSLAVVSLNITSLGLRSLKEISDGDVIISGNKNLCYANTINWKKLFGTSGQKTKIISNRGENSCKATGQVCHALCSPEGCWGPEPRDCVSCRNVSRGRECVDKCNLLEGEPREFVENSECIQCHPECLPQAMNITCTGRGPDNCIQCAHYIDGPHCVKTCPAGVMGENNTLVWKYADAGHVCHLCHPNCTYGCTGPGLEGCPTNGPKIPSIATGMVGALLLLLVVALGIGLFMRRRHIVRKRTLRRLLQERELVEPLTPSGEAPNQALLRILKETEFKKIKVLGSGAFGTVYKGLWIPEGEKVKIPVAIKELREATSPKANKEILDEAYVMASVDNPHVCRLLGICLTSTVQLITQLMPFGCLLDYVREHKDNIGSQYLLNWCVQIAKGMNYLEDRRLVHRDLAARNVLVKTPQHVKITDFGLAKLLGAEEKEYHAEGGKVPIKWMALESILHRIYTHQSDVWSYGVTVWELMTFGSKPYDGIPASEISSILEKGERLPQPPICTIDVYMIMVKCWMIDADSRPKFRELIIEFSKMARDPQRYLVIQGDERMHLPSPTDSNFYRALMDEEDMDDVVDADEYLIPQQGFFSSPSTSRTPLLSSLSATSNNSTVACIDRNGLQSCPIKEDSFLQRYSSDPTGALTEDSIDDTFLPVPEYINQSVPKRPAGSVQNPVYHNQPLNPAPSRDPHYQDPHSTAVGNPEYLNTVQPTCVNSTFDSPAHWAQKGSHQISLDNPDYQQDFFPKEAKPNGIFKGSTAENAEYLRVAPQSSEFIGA
Outline: as §1

kinases [5] = conditions: 1 μM
Outline: as §1

kinases [6] = target: T5, kinases (Homo sapiens, UniProt P10721, A829P); conditions: 1 μM; KIT(A829P)
T5 construct: purchased Eurofins/DiscoveRx; host or cells: E. coli BL21-derived host (T7 phage display) for most kinases; HEK-293 for the rest
T5 sequence (P10721 26-976 A829P): as the sequence (P10721 26-976 V559D) above, with D534V, A804P counted along it
Outline: as §1

kinases [7] = target: T6, kinases (Homo sapiens, UniProt P36888, D835H); conditions: 1 μM; FLT3(D835H)
T6 construct: purchased Eurofins/DiscoveRx; host or cells: E. coli BL21-derived host (T7 phage display) for most kinases; HEK-293 for the rest
T6 sequence (P36888 27-993 D835H): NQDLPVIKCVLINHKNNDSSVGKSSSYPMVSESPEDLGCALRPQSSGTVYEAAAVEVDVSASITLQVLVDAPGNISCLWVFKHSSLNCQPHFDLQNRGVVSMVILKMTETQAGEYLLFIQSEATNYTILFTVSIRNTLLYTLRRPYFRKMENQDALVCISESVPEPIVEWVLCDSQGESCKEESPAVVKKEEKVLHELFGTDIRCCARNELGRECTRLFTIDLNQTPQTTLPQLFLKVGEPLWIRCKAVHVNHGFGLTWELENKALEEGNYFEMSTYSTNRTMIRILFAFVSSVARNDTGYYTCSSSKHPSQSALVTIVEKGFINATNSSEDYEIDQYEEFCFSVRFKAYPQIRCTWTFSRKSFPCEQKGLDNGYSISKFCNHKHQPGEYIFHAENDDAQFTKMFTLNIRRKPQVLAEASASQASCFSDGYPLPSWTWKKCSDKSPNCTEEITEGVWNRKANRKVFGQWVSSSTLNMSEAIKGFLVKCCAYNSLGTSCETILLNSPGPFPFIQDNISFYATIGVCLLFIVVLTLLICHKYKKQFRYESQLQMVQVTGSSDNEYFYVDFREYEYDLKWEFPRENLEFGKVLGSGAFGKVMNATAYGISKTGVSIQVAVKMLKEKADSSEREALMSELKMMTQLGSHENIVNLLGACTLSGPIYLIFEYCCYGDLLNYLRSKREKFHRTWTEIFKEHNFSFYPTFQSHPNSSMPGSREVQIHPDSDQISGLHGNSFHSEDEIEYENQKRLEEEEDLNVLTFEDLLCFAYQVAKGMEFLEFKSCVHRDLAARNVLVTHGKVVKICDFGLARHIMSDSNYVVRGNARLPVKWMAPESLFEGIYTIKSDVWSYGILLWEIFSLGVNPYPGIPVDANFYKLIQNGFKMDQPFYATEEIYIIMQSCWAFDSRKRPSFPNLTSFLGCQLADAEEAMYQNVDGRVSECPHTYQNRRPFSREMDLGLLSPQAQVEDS
Outline: as §1

kinases [8] = target: T7, kinases (Homo sapiens, UniProt P00519, M351T); conditions: 1 μM; ABL1(M351T)-phosphorylated
T7 construct: purchased Eurofins/DiscoveRx; host or cells: E. coli BL21-derived host (T7 phage display) for most kinases; HEK-293 for the rest
Outline: as §1

kinases [9] = target: T8, kinases (Homo sapiens, UniProt P07949); conditions: 1 μM; RET
T8 construct: purchased Eurofins/DiscoveRx; host or cells: E. coli BL21-derived host (T7 phage display) for most kinases; HEK-293 for the rest
T8 sequence (P07949 29-1114): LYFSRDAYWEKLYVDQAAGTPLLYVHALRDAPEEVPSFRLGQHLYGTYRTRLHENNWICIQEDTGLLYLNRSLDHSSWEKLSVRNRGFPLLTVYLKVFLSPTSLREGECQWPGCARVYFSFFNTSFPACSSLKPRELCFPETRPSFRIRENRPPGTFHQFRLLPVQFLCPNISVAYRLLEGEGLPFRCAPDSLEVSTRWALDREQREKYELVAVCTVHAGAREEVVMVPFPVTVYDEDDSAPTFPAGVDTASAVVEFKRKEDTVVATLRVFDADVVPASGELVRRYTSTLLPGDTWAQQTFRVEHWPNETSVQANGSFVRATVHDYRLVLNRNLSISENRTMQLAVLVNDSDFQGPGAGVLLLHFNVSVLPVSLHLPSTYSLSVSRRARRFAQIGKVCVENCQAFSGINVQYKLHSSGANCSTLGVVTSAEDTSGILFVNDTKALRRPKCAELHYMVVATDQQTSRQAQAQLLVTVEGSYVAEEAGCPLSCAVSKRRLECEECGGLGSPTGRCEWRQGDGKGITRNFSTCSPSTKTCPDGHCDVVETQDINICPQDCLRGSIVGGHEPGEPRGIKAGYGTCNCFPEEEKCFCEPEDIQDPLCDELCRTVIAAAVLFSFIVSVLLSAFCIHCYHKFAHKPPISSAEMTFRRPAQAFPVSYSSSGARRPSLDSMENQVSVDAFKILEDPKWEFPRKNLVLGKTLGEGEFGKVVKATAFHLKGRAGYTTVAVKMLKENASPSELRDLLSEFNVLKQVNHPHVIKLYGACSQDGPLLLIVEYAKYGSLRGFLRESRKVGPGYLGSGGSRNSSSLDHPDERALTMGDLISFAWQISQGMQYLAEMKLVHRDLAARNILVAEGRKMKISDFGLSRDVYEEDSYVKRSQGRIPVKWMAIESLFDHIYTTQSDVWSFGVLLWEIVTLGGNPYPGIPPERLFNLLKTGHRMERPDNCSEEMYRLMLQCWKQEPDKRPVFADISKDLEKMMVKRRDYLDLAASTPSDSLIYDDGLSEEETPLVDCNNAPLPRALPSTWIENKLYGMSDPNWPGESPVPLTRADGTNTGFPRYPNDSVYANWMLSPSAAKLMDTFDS
Outline: as §1

kinases [10] = target: T9, kinases (Homo sapiens, UniProt P07949, M918T); conditions: 1 μM; RET(M918T)
T9 construct: purchased Eurofins/DiscoveRx; host or cells: E. coli BL21-derived host (T7 phage display) for most kinases; HEK-293 for the rest
T9 sequence (P07949 29-1114 M918T): as the sequence (P07949 29-1114) above, with M890T counted along it
Outline: as §1

T1 sequence (P10721 26-976 L576P): as the sequence (P10721 26-976 V559D) above, with D534V, L551P counted along it

| SMILES | % Ctrl, KIT(L576P) (kinases [1]) | % Ctrl, ABL2 (kinases [2]) | % Ctrl, KIT(V559D) (kinases [3]) | % Ctrl, EGFR (kinases [4]) | % Ctrl, EGFR(L747-E749del, A750P) (kinases [5]) | % Ctrl, EGFR(L747-S752del, P753S) (kinases [5]) | % Ctrl, EGFR(L747-T751del, Sins) (kinases [5]) | % Ctrl, FLT3(ITD) (kinases [5]) | % Ctrl, FLT3(ITD, D835V) (kinases [5]) | % Ctrl, FLT3(ITD, F691L) (kinases [5]) | % Ctrl, KIT(A829P) (kinases [6]) | % Ctrl, FLT3(D835H) (kinases [7]) | % Ctrl, ABL1(M351T)-phosphorylated (kinases [8]) | % Ctrl, RET (kinases [9]) | % Ctrl, RET(M918T) (kinases [10]) |
| --- | --- | --- | --- | --- | --- | --- | --- | --- | --- | --- | --- | --- | --- | --- | --- |
| Cc1cc2c([nH]1)/C=C1\C(=O)Nc3ccc(cc31)-c1cnn(C)c1COCCN(C)C2=O [Ex. 124, [3a(4)Z]-6,9,14-trimethyl-10,11,13,14-tetrahydro-2H-1,17-(ethanediylidene)pyrazolo[4,3-m]dipyrrolo[3,2-f:3′,4′-i][1,4]oxazacyclopentadecine-3,8(5H,9H)-dione] | 4.2 % Ctrl | 2.4 % Ctrl | 36 % Ctrl | 50 % Ctrl | 25 % Ctrl | 37 % Ctrl | 57 % Ctrl | 0 % Ctrl | 0 % Ctrl | 0.65 % Ctrl | 4.3 % Ctrl | 0.05 % Ctrl | 0.05 % Ctrl | 0 % Ctrl | 0 % Ctrl |
| Cc1cc2c([nH]1)/C=C1\C(=O)Nc3ccc(cc31)-c1cnn(C)c1CNCCN(C)C2=O [Ex. 125, [3a(4)Z]-6,9,14-trimethyl-9,10,11,12,13,14-hexahydro-1,17-(ethanediylidene)pyrazolo[4,3-m]dipyrrolo[3,2-f:3′,4′-i][1,4]diazacyclopentadecine-3,8(2H,5H)-dione] | 5.9 % Ctrl | 2.2 % Ctrl | 35 % Ctrl | 61 % Ctrl | 22 % Ctrl | 48 % Ctrl | 54 % Ctrl | 0 % Ctrl | 0 % Ctrl | 0 % Ctrl | 2.6 % Ctrl | 0.05 % Ctrl | 0.1 % Ctrl | 0 % Ctrl | 0 % Ctrl |
| Cc1cc2c([nH]1)/C=C1\C(=O)Nc3ccc(cc31)-c1cnn(C)c1CN(C)CCN(C)C2=O [Ex. 126, [3a(4)Z]-6,9,12,14-tetramethyl-9,10,11,12,13,14-hexahydro-1,17-(ethanediylidene)pyrazolo[4,3-m]dipyrrolo[3,2-f:3′,4′-i][1,4]diazacyclopentadecine-3,8(2H,5H)-dione] | 0 % Ctrl | 0.9 % Ctrl | 1.4 % Ctrl | 23 % Ctrl | 1.8 % Ctrl | 14 % Ctrl | 27 % Ctrl | 0.4 % Ctrl | 0 % Ctrl | 2.5 % Ctrl | 0 % Ctrl | 0.05 % Ctrl | 0.05 % Ctrl | 0 % Ctrl | 0 % Ctrl |
| Cc1cc2c([nH]1)/C=C1\C(=O)Nc3ccc(cc31)-c1c(C)n[nH]c1CNCCN(C)C2=O [Ex. 127, [3a(4)Z]-6,9,16-trimethyl-9,10,11,12,13,14-hexahydro-1,17-(ethanediylidene)pyrazolo[4,3-m]dipyrrolo[3,2-f:3′,4′-i][1,4]diazacyclopentadecine-3,8(2H,5H)-dione] | 73 % Ctrl | 6.9 % Ctrl | 82 % Ctrl | 42 % Ctrl | 26 % Ctrl | 40 % Ctrl | 43 % Ctrl | 2.2 % Ctrl | 0 % Ctrl | 6.2 % Ctrl | 60 % Ctrl | 0.15 % Ctrl | 0.2 % Ctrl | 2 % Ctrl | 2.1 % Ctrl |
